Source: ChEMBL document CHEMBL6092178, “Discovery of a novel KV7.2/7.3 channels agonist for the treatment of neuropathic pain” (Eur J Med Chem, 2024)
Blank lines part the entries; values can stand above or below the compound they belong to. The source made the active and inactive calls.

Assays:
[1] = molecular target: Voltage-gated potassium channel, KQT; KCNQ2(Kv7.2)/KCNQ3(Kv7.3) (Homo sapiens, UniProt O43525+O43526); test: Agonist activity at human KCNQ2/3 transfected in human HEK293 cells incubated for 30 mins by fluorimetric assay; assay type: cell-based
Chain of Voltage-gated potassium channel, KQT; KCNQ2(Kv7.2)/KCNQ3(Kv7.3) (O43526 whole entry): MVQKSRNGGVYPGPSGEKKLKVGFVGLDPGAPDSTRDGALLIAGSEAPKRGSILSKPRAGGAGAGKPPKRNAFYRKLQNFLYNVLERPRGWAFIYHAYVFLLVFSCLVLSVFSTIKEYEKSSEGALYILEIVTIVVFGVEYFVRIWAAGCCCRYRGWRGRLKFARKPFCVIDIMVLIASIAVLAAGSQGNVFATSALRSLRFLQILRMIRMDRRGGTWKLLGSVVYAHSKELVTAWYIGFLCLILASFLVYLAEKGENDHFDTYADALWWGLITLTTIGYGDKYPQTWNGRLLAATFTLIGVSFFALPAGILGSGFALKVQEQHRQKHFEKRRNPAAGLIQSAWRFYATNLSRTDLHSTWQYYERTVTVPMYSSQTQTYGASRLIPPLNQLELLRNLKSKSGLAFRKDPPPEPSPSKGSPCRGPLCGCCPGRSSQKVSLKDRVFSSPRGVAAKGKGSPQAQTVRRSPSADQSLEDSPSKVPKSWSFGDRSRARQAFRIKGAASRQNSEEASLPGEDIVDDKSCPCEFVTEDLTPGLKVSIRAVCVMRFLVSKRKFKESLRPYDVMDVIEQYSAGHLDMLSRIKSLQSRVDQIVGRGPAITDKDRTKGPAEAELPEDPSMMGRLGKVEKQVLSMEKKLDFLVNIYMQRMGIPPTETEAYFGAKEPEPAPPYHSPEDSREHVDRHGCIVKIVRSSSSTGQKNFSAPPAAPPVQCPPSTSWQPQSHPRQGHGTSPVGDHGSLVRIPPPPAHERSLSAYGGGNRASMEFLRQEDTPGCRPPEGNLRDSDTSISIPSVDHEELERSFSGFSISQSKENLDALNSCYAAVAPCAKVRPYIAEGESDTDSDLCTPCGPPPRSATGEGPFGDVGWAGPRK
Chain of Voltage-gated potassium channel, KQT; KCNQ2(Kv7.2)/KCNQ3(Kv7.3) (O43525 whole entry): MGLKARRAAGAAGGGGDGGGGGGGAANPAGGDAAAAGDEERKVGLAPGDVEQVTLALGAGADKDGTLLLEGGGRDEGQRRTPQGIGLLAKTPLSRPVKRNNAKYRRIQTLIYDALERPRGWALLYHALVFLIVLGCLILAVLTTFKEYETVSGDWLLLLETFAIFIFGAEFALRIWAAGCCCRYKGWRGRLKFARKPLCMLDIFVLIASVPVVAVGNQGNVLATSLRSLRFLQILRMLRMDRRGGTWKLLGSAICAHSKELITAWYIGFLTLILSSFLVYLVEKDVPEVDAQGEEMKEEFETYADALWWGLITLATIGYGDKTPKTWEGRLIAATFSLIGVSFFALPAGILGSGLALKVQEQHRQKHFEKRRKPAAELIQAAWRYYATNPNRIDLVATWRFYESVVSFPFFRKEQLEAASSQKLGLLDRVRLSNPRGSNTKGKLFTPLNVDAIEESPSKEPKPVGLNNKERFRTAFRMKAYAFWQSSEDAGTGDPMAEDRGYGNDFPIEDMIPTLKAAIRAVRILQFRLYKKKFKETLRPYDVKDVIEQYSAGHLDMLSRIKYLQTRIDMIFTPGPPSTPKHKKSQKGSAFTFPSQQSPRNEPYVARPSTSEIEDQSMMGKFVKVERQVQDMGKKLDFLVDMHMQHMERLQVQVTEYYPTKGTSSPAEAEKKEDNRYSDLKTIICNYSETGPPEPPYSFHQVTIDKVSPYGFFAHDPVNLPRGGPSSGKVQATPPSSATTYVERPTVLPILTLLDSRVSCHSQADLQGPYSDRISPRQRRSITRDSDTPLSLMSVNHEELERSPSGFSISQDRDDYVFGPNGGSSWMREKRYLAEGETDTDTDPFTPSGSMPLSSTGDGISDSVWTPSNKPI

[2] = Hepatotoxicity in rat assessed as change in serum AST level at 10 to 40 mg/kg, IG administered for 28 days and measured after 14 days; assay type: toxicity, organism-based; conditions: in vivo, po, 672 h, dose 10-40 mg/kg, time 28 day
[3] = Hepatotoxicity in rat assessed as change in serum ALP level at 10 to 40 mg/kg, IG administered for 28 days and measured after 14 days; assay type: toxicity, organism-based; conditions: in vivo, po, 672 h, dose 10-40 mg/kg, time 28 day
[4] = Hepatotoxicity in rat assessed as change in serum total bilirubin (TBIL) level at 10 to 40 mg/kg, IG administered for 28 days and measured after 14 days; assay type: toxicity, organism-based; conditions: in vivo, po, 672 h, dose 10-40 mg/kg, time 28 day
[5] = Hepatotoxicity in rat assessed as increase in serum ALT level at 10 to 20 mg/kg, IG administered for 28 days and measured after 14 days relative to control; assay type: toxicity, organism-based; conditions: in vivo, po, 672 h, dose 10-20 mg/kg, time 28 day
[6] = Hepatotoxicity in rat assessed as increase in serum ALT level at 40 mg/kg, IG administered for 28 days and measured after 14 days; assay type: toxicity, organism-based; conditions: in vivo, po, 672 h, time 28 day
[7] = Hepatotoxicity in rat assessed as increase in serum TBIL level at 40 mg/kg, IG administered for 28 days and measured after 14 days; assay type: toxicity, organism-based; conditions: in vivo, po, 672 h, time 28 day
[8] = molecular target: Voltage-gated potassium channel, KQT; KCNQ2(Kv7.2)/KCNQ3(Kv7.3) (Homo sapiens) (UniProt O43526+O43525); test: Agonist activity at human KCNQ2/3 transfected in human HEK293 cells incubated for 30 mins by fluorimetric assay relative to flupirtine; assay type: cell-based; conditions: filed as agonist
[9] = Hepatotoxicity in rat assessed as increase in serum ALT level at 20 to 40 mg/kg, IG administered for 28 days and measured after 14 days relative to control; assay type: toxicity, organism-based; conditions: in vivo, po, 672 h, dose 20-40 mg/kg, time 28 day
[10] = molecular target: GABA-A receptor; anion channel (Homo sapiens) (UniProt P14867+P47870+P18507+P28472+P48169+Q99928+Q9UN88+P34903+O00591+O14764+Q8N1C3+P18505+P78334+P47869+P31644+Q16445); test: Inhibition of GABAA receptor (unknown origin) relative to control; assay type: protein-complex assay; conditions: concentration not given here
[11] = molecular target: Glutamate [NMDA] receptor (Homo sapiens) (UniProt Q05586+Q12879+Q13224+O15399+O60391+Q14957+Q8TCU5); test: Inhibition of NMDA receptor (unknown origin) relative to control; assay type: protein-complex assay; conditions: concentration not given here
[12] = molecular target: Voltage-gated inwardly rectifying potassium channel KCNH2 (Homo sapiens, UniProt Q12809); test: Inhibition of hERG expressed in HEK293 cells by patch clamp method; assay type: toxicity, cell-based
Chain of Voltage-gated inwardly rectifying potassium channel KCNH2 (Q12809 whole entry): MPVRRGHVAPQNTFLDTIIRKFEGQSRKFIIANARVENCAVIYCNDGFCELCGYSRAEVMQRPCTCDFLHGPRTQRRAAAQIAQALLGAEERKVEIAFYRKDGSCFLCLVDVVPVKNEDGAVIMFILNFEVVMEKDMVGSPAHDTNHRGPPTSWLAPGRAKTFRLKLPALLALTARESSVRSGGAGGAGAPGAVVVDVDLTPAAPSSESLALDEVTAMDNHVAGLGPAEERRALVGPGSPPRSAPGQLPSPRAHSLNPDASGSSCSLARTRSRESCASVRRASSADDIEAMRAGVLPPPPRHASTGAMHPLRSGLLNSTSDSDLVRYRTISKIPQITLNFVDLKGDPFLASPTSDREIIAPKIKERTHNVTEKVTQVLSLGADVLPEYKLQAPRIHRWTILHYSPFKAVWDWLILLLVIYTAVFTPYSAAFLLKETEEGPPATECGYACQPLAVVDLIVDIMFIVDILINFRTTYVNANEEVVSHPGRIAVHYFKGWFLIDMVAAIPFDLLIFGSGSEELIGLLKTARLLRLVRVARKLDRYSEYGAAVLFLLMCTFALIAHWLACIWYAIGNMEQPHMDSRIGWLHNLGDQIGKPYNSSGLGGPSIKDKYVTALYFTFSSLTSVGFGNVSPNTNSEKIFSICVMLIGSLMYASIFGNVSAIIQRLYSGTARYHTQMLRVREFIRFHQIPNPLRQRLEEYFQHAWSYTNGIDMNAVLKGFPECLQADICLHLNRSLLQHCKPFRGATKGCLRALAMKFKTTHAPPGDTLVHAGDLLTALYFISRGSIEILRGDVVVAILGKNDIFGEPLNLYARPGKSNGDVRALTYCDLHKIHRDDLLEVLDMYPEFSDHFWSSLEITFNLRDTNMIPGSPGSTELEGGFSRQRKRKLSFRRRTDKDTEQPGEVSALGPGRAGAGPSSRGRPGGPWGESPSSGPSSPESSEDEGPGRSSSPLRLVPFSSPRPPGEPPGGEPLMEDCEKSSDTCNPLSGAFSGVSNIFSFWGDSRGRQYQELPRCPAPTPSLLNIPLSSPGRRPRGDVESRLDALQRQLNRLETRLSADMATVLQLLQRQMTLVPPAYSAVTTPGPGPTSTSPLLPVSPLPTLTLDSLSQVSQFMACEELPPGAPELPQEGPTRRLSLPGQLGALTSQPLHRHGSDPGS

[13] = organism: Homo sapiens; test: Inhibition of serotonin receptor (unknown origin) relative to control; conditions: concentration not given here
[14] = molecular target: Mu-type opioid receptor (Homo sapiens) (UniProt P35372); test: Inhibition of mu-opioid receptor (unknown origin) relative to control; conditions: concentration not given here
Chain of Mu-type opioid receptor (Homo sapiens) (P35372 whole entry): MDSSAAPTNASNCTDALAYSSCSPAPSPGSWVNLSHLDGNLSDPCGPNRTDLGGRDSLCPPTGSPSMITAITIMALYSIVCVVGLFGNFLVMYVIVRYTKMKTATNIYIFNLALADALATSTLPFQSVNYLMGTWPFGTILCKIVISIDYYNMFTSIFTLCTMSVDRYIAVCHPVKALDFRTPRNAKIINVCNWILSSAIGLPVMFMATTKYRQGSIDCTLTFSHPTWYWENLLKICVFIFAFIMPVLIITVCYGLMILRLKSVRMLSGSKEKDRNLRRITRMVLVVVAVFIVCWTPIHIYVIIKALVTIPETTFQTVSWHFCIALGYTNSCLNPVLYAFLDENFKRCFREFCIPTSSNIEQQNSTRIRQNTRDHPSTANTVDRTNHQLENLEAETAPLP

[15] = molecular target: Histamine H3 receptor (Homo sapiens) (UniProt Q9Y5N1); test: Inhibition of H3 receptor (unknown origin) relative to control; conditions: concentration not given here
Chain of Histamine H3 receptor (Homo sapiens) (Q9Y5N1 whole entry): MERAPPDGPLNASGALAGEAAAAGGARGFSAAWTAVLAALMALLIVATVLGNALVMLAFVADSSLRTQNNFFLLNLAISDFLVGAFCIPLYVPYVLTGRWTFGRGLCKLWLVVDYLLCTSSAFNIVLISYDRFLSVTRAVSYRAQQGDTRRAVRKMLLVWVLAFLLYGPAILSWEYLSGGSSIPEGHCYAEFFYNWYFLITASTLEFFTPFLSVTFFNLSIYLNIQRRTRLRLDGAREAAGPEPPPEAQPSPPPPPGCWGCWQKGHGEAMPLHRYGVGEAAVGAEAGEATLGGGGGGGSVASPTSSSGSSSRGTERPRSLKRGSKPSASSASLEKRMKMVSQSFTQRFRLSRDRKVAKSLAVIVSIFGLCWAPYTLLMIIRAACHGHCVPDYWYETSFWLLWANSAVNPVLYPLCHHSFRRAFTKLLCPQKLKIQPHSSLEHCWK

[16] = organism: Homo sapiens; test: Inhibition of voltage-gated sodium channel Nav 1.7 (unknown origin) relative to control; conditions: concentration not given here
[17] = molecular target: Transient receptor potential cation channel subfamily V member 1 (Homo sapiens) (UniProt Q8NER1); test: Inhibition of TRPV-1 (unknown origin) relative to control; conditions: concentration not given here
Chain of Transient receptor potential cation channel subfamily V member 1 (Homo sapiens) (Q8NER1 whole entry): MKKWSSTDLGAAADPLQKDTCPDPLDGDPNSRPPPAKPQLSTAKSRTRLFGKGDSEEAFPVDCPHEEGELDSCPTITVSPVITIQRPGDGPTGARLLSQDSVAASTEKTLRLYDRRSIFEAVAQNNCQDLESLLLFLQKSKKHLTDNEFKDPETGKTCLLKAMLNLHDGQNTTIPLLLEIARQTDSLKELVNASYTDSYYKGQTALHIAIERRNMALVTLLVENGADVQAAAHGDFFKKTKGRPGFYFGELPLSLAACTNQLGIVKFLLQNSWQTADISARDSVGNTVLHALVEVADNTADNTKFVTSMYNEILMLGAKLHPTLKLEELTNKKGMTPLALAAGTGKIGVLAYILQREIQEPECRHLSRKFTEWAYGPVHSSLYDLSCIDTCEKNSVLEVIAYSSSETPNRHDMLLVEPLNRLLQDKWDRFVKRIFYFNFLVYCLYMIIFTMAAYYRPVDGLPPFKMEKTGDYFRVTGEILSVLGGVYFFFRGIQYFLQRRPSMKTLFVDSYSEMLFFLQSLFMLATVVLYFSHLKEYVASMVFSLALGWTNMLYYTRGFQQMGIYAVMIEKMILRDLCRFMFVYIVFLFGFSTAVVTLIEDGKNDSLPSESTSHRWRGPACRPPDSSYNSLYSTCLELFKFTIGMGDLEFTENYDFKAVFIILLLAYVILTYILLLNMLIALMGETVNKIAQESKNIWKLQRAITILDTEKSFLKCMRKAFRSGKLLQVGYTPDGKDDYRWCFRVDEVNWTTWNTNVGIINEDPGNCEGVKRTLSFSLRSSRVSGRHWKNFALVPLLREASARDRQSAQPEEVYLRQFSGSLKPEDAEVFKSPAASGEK

[18] = Acute toxicity in mouse assessed as lethal dose at IG administration measured after 7 days; conditions: in vivo, po, time 7 day
[19] = Acute toxicity in mouse assessed as lethal dose at iv administration measured after 7 days; assay type: organism-based; conditions: in vivo, time 7 day
[20] = Acute toxicity in mouse assessed as lethal dose at ip administration measured after 7 days; assay type: organism-based; conditions: in vivo, time 7 day
[21] = test system: Rattus norvegicus; test: Antinociceptive activity against formalin-induced pain in male Sprague-Dawley rat assessed as reduction in nociceptive response at 20 mg/kg, IG pretreated for 5 mins followed by formalin challenge and measured for first 9 mins (phase I); assay type: functional, organism-based; conditions: time 14.0 min
[22] = test system: Rattus norvegicus; test: Antinociceptive activity against formalin-induced pain in male Sprague-Dawley rat assessed as reduction in nociceptive response at 20 mg/kg, IG pretreated for 5 mins followed by formalin challenge and measured for 10 to 60 mins (phase II); assay type: functional, organism-based
[23] = test system: Rattus norvegicus; test: Antinociceptive activity against formalin-induced pain in male Sprague-Dawley rat assessed as reduction in nociceptive response at IG administration pretreated for 5 mins followed by formalin challenge and measured for 9 mins (phase I); assay type: functional; conditions: po, 14 min
[24] = test system: Rattus norvegicus; test: Antinociceptive activity against formalin-induced pain in male Sprague-Dawley rat assessed as reduction in nociceptive response in phase II at IG administration pretreated for 5 mins followed by formalin challenge and measured after 60 mins; assay type: functional; conditions: po, 1.083 h, time 65 min
[25] = test system: Rattus norvegicus; test: Antiallodynic activity in IG dosed spinal nerve ligation-induced neuropathic pain male Sprague-Dawley rat model assessed as mechanical withdrawal threshold pretreated with compound for 1 hr and measured on day 15 after surgery; assay type: functional
[26] = test system: Rattus norvegicus; test: Antiallodynic activity in spinal nerve ligation-induced neuropathic pain male Sprague-Dawley rat model assessed as mechanical withdrawal threshold at 40 mg/kg, IG pretreated with compound for 1 hr and measured on day 15 after surgery; assay type: functional, organism-based; conditions: time 15.0 day
[27] = test system: Rattus norvegicus; test: Antiallodynic activity against oxaliplatin-induced neuropathic pain Sprague-Dawley rat model assessed as increased mechanical withdrawal threshold at 10 to 40 mg/kg, IG measured for 48 hrs; assay type: functional, organism-based; conditions: dose 10-40 mg/kg
[28] = test system: Rattus norvegicus; test: Antiallodynic activity against oxaliplatin-induced neuropathic pain Sprague-Dawley rat model assessed as increased mechanical withdrawal threshold at IG administration and measured after 48 hrs; assay type: functional; conditions: po
[29] = test system: Rattus norvegicus; test: Antiallodynic activity against oxaliplatin-induced neuropathic pain Sprague-Dawley rat model assessed as increased mechanical withdrawal threshold at 40 mg/kg, IG measured after 48 hrs; assay type: functional, organism-based; conditions: time 1.0 hrs
[30] = test system: Rattus norvegicus; test: Antiallodynic activity in CCI-induced neuropathic pain Sprague-Dawley rat model assessed as attenuation of mechanical allodynia at 10 to 40 mg/kg, IG pretreated with compound for 1 hrs and measured on day 15 after surgery; assay type: functional, organism-based; conditions: dose 10-40 mg/kg, time 15.0 day
[31] = test system: Rattus norvegicus; test: Antiallodynic activity in CCI-induced neuropathic pain Sprague-Dawley rat model assessed as attenuation of mechanical allodynia at IG administration pretreated with compound for 1 hrs and measured on day 15 after surgery; assay type: functional; conditions: dose 10-40 mg/kg
[32] = test system: Rattus norvegicus; test: Antiallodynic activity in CCI-induced neuropathic pain Sprague-Dawley rat model assessed as attenuation of mechanical allodynia at 20 mg/kg, IG administration pretreated with compound for 1 hrs and measured on day 15 after surgery; assay type: functional, organism-based; conditions: time 15.0 day
[33] = organism: Rattus norvegicus; test: Analgesic activity in streptozotocin-induced diabetic peripheral neuropathic pain male Sprague-Dawley rat model pretreated with compound for 1 hrs and measured on day 15 after surgery; assay type: functional; conditions: dose 10-40 mg/kg
[34] = test system: Rattus norvegicus; test: Analgesic activity in streptozotocin-induced diabetic peripheral neuropathic pain male Sprague-Dawley rat model at 10 to 40 mg/kg pretreated with compound for 1 hrs and measured on day 15 after surgery; assay type: functional, organism-based; conditions: dose 10-40 mg/kg
[35] = test system: Mus musculus; test: Induction of motor coordination impairment in mouse at 10 to 40 mg/kg, IG measured upto 120 mins by rotarod method; assay type: functional, organism-based; conditions: dose 10-40 mg/kg
[36] = AUC (0 to t) in male Sprague-Dawley rat at 5 mg/kg, iv measured upto 24 hrs by LC-MS/MS analysis; assay type: ADME, organism-based; conditions: in vivo
[37] = AUC (0 to t) in male Sprague-Dawley rat at 30 mg/kg, IG measured upto 24 hrs by LC-MS/MS analysis; assay type: ADME, organism-based; conditions: in vivo, po
[38] = AUC (0 to infinity) in male Sprague-Dawley rat at 5 mg/kg, iv measured upto 24 hrs by LC-MS/MS analysis; assay type: ADME, organism-based; conditions: in vivo
[39] = AUC (0 to infinity) in male Sprague-Dawley rat at 30 mg/kg, IG measured upto 24 hrs by LC-MS/MS analysis; assay type: ADME, organism-based; conditions: in vivo, po
[40] = Half life in male Sprague-Dawley rat at 5 mg/kg, iv measured upto 24 hrs by LC-MS/MS analysis; assay type: ADME, organism-based; conditions: in vivo
[41] = Half life in male Sprague-Dawley rat at 30 mg/kg, IG measured upto 24 hrs by LC-MS/MS analysis; assay type: ADME, organism-based; conditions: in vivo, po
[42] = Tmax in male Sprague-Dawley rat at 30 mg/kg, IG measured upto 24 hrs by LC-MS/MS analysis; assay type: ADME, organism-based; conditions: in vivo, po
[43] = Clearance in male Sprague-Dawley rat at 5 mg/kg, iv measured upto 24 hrs by LC-MS/MS analysis; assay type: ADME, organism-based; conditions: in vivo
[44] = Clearance in male Sprague-Dawley rat at 30 mg/kg, IG measured upto 24 hrs by LC-MS/MS analysis; assay type: ADME, organism-based; conditions: in vivo, po
[45] = Cmax in male Sprague-Dawley rat at 5 mg/kg, iv measured upto 24 hrs by LC-MS/MS analysis; assay type: ADME, organism-based; conditions: in vivo
[46] = Cmax in male Sprague-Dawley rat at 30 mg/kg, IG measured upto 24 hrs by LC-MS/MS analysis; assay type: ADME, organism-based; conditions: in vivo, po
[47] = Oral bioavailability in male Sprague-Dawley rat at 30 mg/kg measured upto 24 hrs by LC-MS/MS analysis; assay type: ADME, organism-based; conditions: in vivo

- EC50 [1]: 98.6 µM
SMILES: Nc1ccc(OCc2ccc(F)cc2)nc1NC(=O)c1ccccc1

- EC50 [1]: 13.5 µM
SMILES: COc1ccc(COc2ccc(N)c(NC(C)=O)n2)cc1

- EC50 [1]: 218 µM
SMILES: CC(=O)Nc1nc(OCc2cccc3ccccc23)ccc1N

- EC50 [1]: 35.3 µM
SMILES: CC(=O)Nc1nc(OCc2ccncc2)ccc1N

- EC50 [1]: 13.9 µM
SMILES: CCC(=O)Nc1nc(OCc2ccc(F)cc2)ccc1N

- EC50 [1]: 196 µM
SMILES: Nc1ccc(OCc2ccc(F)cc2)cc1NC(=O)c1ccccc1

- EC50 [1]: 1.9 µM
SMILES: CCOC(=O)Nc1ccc(NCc2ccc(F)cc2)nc1N [FLUPIRTINE]
- Activity [2]: Non-toxic
- Activity [3]: Non-toxic
- Activity [4]: Non-toxic
- Activity [5]: < 70%
- Activity [6]: Toxic
- Activity [7]: Toxic

- EC50 [1]: 164 µM
SMILES: Nc1ccc(OCc2ccc(F)cc2)nc1NC(=O)C1CCCCC1

SMILES: CC(=O)Nc1nc(OCc2ccc(F)cc2)ccc1N
- EC50 [1]: 1.03 µM
- Activity [8]: 184%
- Activity [2]: Non-toxic
- Activity [3]: Non-toxic
- Activity [4]: Non-toxic
- Activity [9]: < 70%
- inhibition [10]: 59.5%
- inhibition [11]: 69.7%
- IC50 [12]: 448 µM
- inhibition [13]: < 50%
- inhibition [14]: < 50%
- inhibition [15]: < 50%
- inhibition [16]: < 50%
- inhibition [17]: < 50%
- LD50 at 168 h [18]: > 2000 mg/kg
- LD50 at 168 h [19]: 267 mg/kg
- LD50 at 168 h [20]: 421 mg/kg
- Activity [21]: Active
- Activity [22]: Active
- ED50 [23]: 16.2 mg/kg
- ED50 [24]: 14.7 mg/kg
- ED50 ([25]; po, 360 h, time 15 day): 14.9 mg/kg
- Activity ([25]; time 15.0 day): Dose-dependent-effect
- Activity [26]: Active; Superior Activity Observed Than Pregabalin
- Activity [27]: Active
- ED50 [28]: 12.2 mg/kg
- Activity [29]: Active; Inhibition Of Pain Was Higher Than Pregabalin
- Activity [30]: Active
- Activity ([31]; time 15.0 day): Dose-dependent-effect
- ED50 ([31]; po, 360 h, time 15 day): 12 mg/kg
- Activity [32]: Active; Higher Value Observed Than Pregabalin
- ED50 ([33]; 360 h, time 15 day): 9.63 mg/kg
- Activity ([33]; time 15.0 day): Dose-dependent-effect
- Activity [34]: Active; Better Activity Than Pregabalin Observed
- Activity [35]: Active
- AUC(0-t) at 24 h [36]: 1100 ng·h/mL
- AUC(0-t) at 24 h [37]: 4110 ng·h/mL
- AUC(0-inf) [38]: 1520 ng·h/mL
- AUC(0-inf) [39]: 4270 ng·h/mL
- half-life [40]: 12.8 h
- half-life [41]: 3.5 h
- Tmax [42]: 0.17 h
- clearance [43]: 56.7 mL/min/kg
- CL/F [44]: 120 mL/min/kg
- Cmax [45]: 2850 ng/mL
- Cmax [46]: 3340 ng/mL
- bioavailability [47]: 46.7%

- EC50 [1]: 18.4 µM
SMILES: CC(C)C(=O)Nc1nc(OCc2ccc(F)cc2)ccc1N

- EC50 [1]: 10.1 µM
SMILES: CC(=O)Nc1nc(OCc2ccc(Cl)c(Cl)c2)ccc1N

- EC50 [1]: 131 µM
SMILES: Nc1ccc(OCc2ccc(F)cc2)nc1NC(=O)C1CCCC1

- EC50 [1]: 13.5 µM
SMILES: CC(=O)Nc1cc(OCc2ccc(F)cc2)ccc1N
